For orientation: MIC means the lowest concentration that inhibits growth of the organism.

Drawing on patent US4499088A, “Cephem compounds” (Fujisawa Pharmaceutical Co., Ltd., priority 1983, dated 1985), this text covers MIC and dose excreted for 1 compound.

Data set [1] concerns Proteus mirabilis 18. Nature of the data set: Minimal inhibitory concentration, two-fold agar-plate dilution method. The following applies: HI-agar, 37° C., 20 hours. The class given is cell-based. Here is the method: (§1) (A) Minimal inhibitory concentration (1) Test Method In vitro antibacterial activity was determined by the two-fold agar-plate dilution method as described below. One loopful of an overnight culture of each test strain in Trypticase-soy broth (10^8 viable cells per ml) was streaked on heart infusion agar (HI-agar) containing graded concentrations of representative test compound, and the minimal inhibitory concentration (MIC) was expressed in terms of μg/ml after incubation at 37° C. for 20 hours.

The subject of data set [2] is Proteus vulgaris 2. The description is as above. The data set is classed as cell-based. The note with it: HI-agar, 37° C., 20 hours. On the procedure: as §1
A short description of data set [3]: Urinary excretion. The data set is classed as in vivo. The following applies: rat; rats, oral administration of 100 mg/kg, urine 0 to 6 and 6 to 24 hours, bioassay; read-out: Urinary recovery in 24 hours (%).
Description: Urine of rats was collected with a urine collector at 0 to 6, and 6 to 24 hours after oral administration of 100 mg/kg of the test antibiotic. The antibiotic levels in the urine samples were bioassayed with the standard solution prepared with M/15 phosphate buffer (pH 7.0) and the urinary recovery in 24 hours was calculated.
A short description of data set [4]: in vivo. The note with it: rat, po, 100 mg/kg.
Description: Rats anesthetized with pentobarbital were fixed in supine position, and a polyethylene cannula was inserted into the bile duct. Bile samples were collected at 0 to 3, 3 to 6, and 6 to 24 hours after oral administration of 100 mg/kg of the test antibiotic. The antibiotic levels in the bile samples were bioassayed with the standard solutions prepared with M/15 phosphate buffer (pH 7.0) and the biliary recovery in 24 hours were calculated.

Bounds are passed on as bounds.

`O=C(O)CO/N=C(\C(=O)NC1C(=O)N2C(C(=O)O)=C(CSc3ccc4nnnn4n3)CSC12)c1cscn1` (stereo not drawn) [Test Compound (1), 7-[2-Carboxymethoxyimino-2-(4-thiazolyl)acetamido]-3-(tetrazolo[1,5-b]pyridazin-6-yl)thiomethyl-3-cephem-4-carboxylic acid (syn isomer)]: the minimum inhibitory concentration (MIC) in data set [1] and in data set [2] was below 0.025 µg/mL each time. The dose excreted at 24 h was found to be 20.2% in data set [3] and 8.97% in data set [4].
